Entries after “also recorded” stand apart in the source; their conditions may differ.

In one experiment the test system is ptc-lacZ skin punches. Briefly: Skin explants from ptc-lacZ pups (X-Gal stain). In kind it is cell-based, mouse. Conditions: agonist alone, cultured 6 days. As to the method:
Skin from ptc-lacZ E17.5 pups was excised with a 2 mm skin punch. Those skin punches were then cultured for 6 days in control media, or media including either agonist B or D or Hh protein, or media including both an agonist and Hh protein. The explants were then stained with X-Gal stain.

For experiment [1], the system named is hedgehog-responsive Gli-Luc reporter-construct. Briefly: Gli-Luc hedgehog pathway reporter assay in [10T1/2(s12)] cells. In kind it is cell-based, murine. The settings on record: Table 1. In outline: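 10T1/2(s12) cells carrying a Gli-Luc reporter, switched to 0.5% FBS medium, then exposed to compound for 24 hr; luciferase read by luminescence. Screen A: 1-2 μM with Hh protein at 0.01 μg/ml (about EC30); Screen B: 5 μM without Hh. Activity expressed as percent of full Hh-induced signal.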
(A reporter such as luciferase makes a cellular process visible.)

Experiment [2] concerns patched (ptc-lacZ β-galactosidase reporter). Put plainly: Ptc-lacZ reporter mice assay (X-gal staining of tissues). In kind it is in vivo. As for the experimental part: Mice with a β-galactosidase transgene (ptc-lacZ mice) under the regulatory control of the patched locus express the β-galactosidase protein in the same cells where the endogenous mouse patched gene is expressed. The β-galactosidase protein can thus be used as a faithful reporter of the expression of the endogenous patched gene.
Ptc-lacZ mice were divided into four treatment groups and were treated with the following compounds or combinations of compounds for four days, beginning on the first day after birth (dipal-Shh=dipalmitoylated Sonic hedgehog):
The vehicle for the agonist was 10% DMSO in PBS (pH 7.2). The agonist was injected from a 4.67 mM stock dissolved in the vehicle solution.
18 hours following the last injections, the mice were sacrificed and the following tissues were collected: skull, kidney, lung, scapula, skin and heart. All tissues were fixed in 0.2% glutaraldehyde, 5 mM EDTA (pH 8.0), 20 mM MgCl2, 100 mM Na2HPO4 for 30 minutes before staining in 1 mg/ml X-gal, 12.5 mM potassium ferrocyanide, 12.5 mM potassium ferricyanide, 2 mM MgCl2, 0.01% deoxycholate, 0.02% NP-40, and 100 mM Na2HPO4 for 30 hours. Tissues were judged for relative intensity and photographed.
FIG. 42: Ptc-lacZ mice were divided into two treatment groups and were treated with the following compounds for three days, beginning on the first day after birth:
The vehicle for the agonist was 10% DMSO in PBS (pH 7.2). The agonist was injected from a 1.0 mM stock dissolved in the vehicle solution.
Eighteen hours following the last injections, the mice were sacrificed and the forelimbs were collected and processed as described above.
In a third experiment, Ptc-lacZ mice were divided into five treatment groups and were treated with the following compounds for four days, beginning on the first day after birth:
The vehicle for the agonist was 10% DMSO in PBS (pH 7.2). The agonist was injected from stocks of 0.3, 0.1 and 0.03 mM dissolved in the vehicle solution.

Experiment [3] relates to cerebellar neuron precursors. Briefly: Cerebellar neuron precursor proliferation (3H-thymidine incorporation). In kind it is cell-based, rat. The settings on record: for induction of 3H thymidine incorporation: absence of Shh. As for the experimental part: In order to test the efficacy of Hedgehog signaling agonists, the ability of the agonists to stimulate the proliferation of cerebellar neuron precursors was determined. Cerebellar granule neuron precursors are known to respond to Hh protein by proliferating. To test the agonists, cerebellar neurons were dissected out of postnatal (one week) rat brains, and placed into primary cell culture. Treatment agents were added once, on the first day of culture (0 DIV). Cells were left in culture until 2 DIV, when 3H-thymidine was added for 5 hours; the amount of incorporation by the cells of this 3H-thymidine provides a measure of the level of proliferation of the cells. Cells were then lysed, and the incorporation of 3H-thymidine was determined. The positive control was Hh protein, at 1.0 μg/ml final concentration. Hh protein alone caused approximately a 20-fold increase in 3H-thymidine incorporation, consistent with the known ability of Shh to stimulate proliferation of these cells. Non-Hh-protein-stimulated cells, including cells treated with control vehicle (DMSO), had very low levels of proliferation. […] At 5.0 μM, the p-cyanophenyl compound B caused 10.2-fold induction of 3H-thymidine incorporation. […] At 1.0, 0.3, or 0.1 μM, D caused 16-, 17-, or 13-fold induction, respectively, of 3H thymidine incorporation into the cells.
For orientation: Uptake of a labelled nucleoside into DNA is a usual measure of proliferation.

In the case of `CNC1CCC(N(Cc2ccc(OC)c(-c3ccc(C#N)cc3)c2)C(=O)c2sc3ccccc3c2Cl)CC1` (centres unmarked) [D], the “X-Gal staining of skin explants” value in the experiment with ptc-lacZ skin punches is on record as “Analogous results”. The EC50 in experiment [1] was less than 100 nM. Also, the “upregulation of hedgehog pathway in forelimbs (β-galactosidase staining)” value in experiment [2] (0.1 mg/kg/injection 4X/day, four days) was “very weak upregulation”; in experiment [2] (0.3 mg/kg/injection 4X/day, four days) it was “greater than that seen with injections of Hh protein at 10 mg/kg/injection”; in experiment [2] (0.9 mg/kg/injection 4X/day, four days) it was “highest levels of upregulation; also recorded: greater than that seen with injections of Hh protein at 10 mg/kg/injection”; in experiment [2] (4 mg/kg/injection 4X/day, three days, absence of dipal-Shh), “strong upregulation in the nerves, blood vessels, cartilage, and connective tissue; also recorded: greater than that seen with injections of dipal-Shh at 10 mg/kg/injection”. Further, in experiment [2] (0.1-0.9 mg/kg/injection 4X/day), the “dose dependence of hedgehog pathway upregulation in vivo” value is “dose-responsive manner”. Besides, the “induction of 3H thymidine incorporation” value in experiment [3] (0.1 μM) was 13 fold; in experiment [3] (0.3 μM) it was 17 fold; in experiment [3] (1.0 μM), 16 fold. For the same molecule, the “stimulation of 3H-thymidine incorporation” value in experiment [3] (absence of Hh protein treatment) is “strongly stimulated 3H-thymidine incorporation”.

As a reminder, the EC50 is the concentration at which the effect is half-maximal.

Values taken from patent publication US8129425B2, “Small organic molecule regulators of cell proliferation” (Curis, Inc., priority 2000, dated 2012).
